Laboratory results: patent US12043600B2, “Microbiocidal compounds” (SYNGENTA CROP PROTECTION AG, priority 2018, dated 2024)

Columns and labels:
[1] = system: Plasmopara viticola; test: whole plant or invertebrate; format: in vivo; conditions: foliar, read-out: control of Plasmopara viticola
[2] = system: Monographella nivalis (Microdochium nivale); test: Monographella nivalis (Microdochium nivale)/Liquid Culture (Foot Rot Cereals); format: cell-based; conditions: liquid culture, compared to untreated control
In short: (§1)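 Conidia from cryogenic storage were mixed directly into potato dextrose broth, then added to microtiter wells already holding the test compound dissolved in DMSO. Fungal growth in liquid culture was then assessed.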

[3] = system: Magnaporthe grisea (Pyricularia oryzae); test: whole plant or invertebrate; format: in vivo; conditions: foliar, read-out: control of Magnaporthe grisea
[4] = system: Puccinia recondita f. sp. tritici; test: Puccinia recondita f. sp. tritici/Wheat/Leaf Disc Preventative (Brown Rust); format: in vivo; conditions: foliar, 200 ppm, wheat leaf disc preventative, compared to untreated control, read-out: control of Puccinia recondita f. sp. tritici
[5] = system: Puccinia recondita f. sp. tritici; test: Puccinia recondita f. sp. tritici/Wheat/Leaf Disc Curative (Brown Rust); format: in vivo; conditions: foliar, wheat leaf disc curative, compared to untreated control
In short: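 Curative leaf-disc test on wheat cv. Kanzler segments on agar, spore-inoculated and kept dark at 19° C, 75% rh; formulated compound in water applied 1 day after inoculation. Incubated at 19° C, 75% rh, 12 h light/12 h dark; percent disease control versus untreated scored 6-8 days after application.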

[6] = system: Mycosphaerella arachidis (Cercospora arachidicola); test: Mycosphaerella arachidis (Cercospora arachidicola)/Liquid Culture (Early Leaf Spot); format: cell-based; conditions: liquid culture, compared to untreated control
In short: as §1

[7] = system: Phytophthora infestans; test: whole plant or invertebrate; format: in vivo; conditions: in Solanum lycopersicum, foliar, read-out: control of Phytophthora infestans
[8] = system: Mycosphaerella graminicola (Septoria tritici); test: Mycosphaerella graminicola (Septoria tritici)/Liquid Culture (Septoria Blotch); format: cell-based; conditions: Zymoseptoria tritici; 20 ppm; liquid culture; compared to untreated control
In short: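 Conidia from cryogenic storage mixed into potato dextrose broth and added to microtiter wells already holding DMSO solutions of test compound. Activity expressed as percentage disease control.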

[9] = system: Glomerella lagenarium (Colletotrichum lagenarium); test: Glomerella lagenarium (Colletotrichum lagenarium)/Liquid Culture (Anthracnose); format: cell-based; conditions: Colletotrichum orbiculare, liquid culture, compared to untreated control
[10] = system: Blumeria graminis f. sp. tritici (Erysiphe graminis f. sp. tritici); test: Blumeria graminis f. sp. tritici/Wheat/Leaf Disc Preventative (Powdery Mildew on Wheat); format: in vivo; conditions: foliar, wheat leaf disc preventative, compared to untreated control
In short: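 Wheat cv. Kanzler leaf segments on agar sprayed with formulated compound, inoculated with powdery mildew 1 day later and held at 20° C, 60% rh (24 h dark, then 12 h light/12 h dark). Percent disease control versus untreated scored 6-8 days after application.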

[11] = system: Sclerotinia sclerotiorum; test: Sclerotinia sclerotiorum/Liquid Culture (Cottony Rot); format: cell-based; conditions: liquid culture, compared to untreated control
Protocol: Mycelia fragments of a newly grown liquid culture of the fungus are directly mixed into nutrient broth (PDB potato dextrose broth). After placing a (DMSO) solution of test compound into a microtiter plate (96-well format) the nutrient broth containing the fungal material is added.

[12] = system: Phaeosphaeria nodorum (Septoria nodorum); test: Phaeosphaeria nodorum (Septoria nodorum)/Wheat/Leaf Disc Preventative (Glume Blotch); format: in vivo; conditions: Parastagonospora nodorum, foliar, wheat leaf disc preventative, compared to untreated control
In short: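 Wheat cv. Kanzler leaf discs on agar were sprayed with formulated compound diluted in water and inoculated with P. nodorum spores 2 days later. Discs kept at 20 °C, 75% rh, 12 h light/dark; percent disease control versus untreated scored 5–7 days after application.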

[13] = system: Phakopsora pachyrhizi; test: Phakopsora pachyrhizi/Soybean/Preventative (Soybean Rust); format: in vivo; conditions: foliar, 288 h, 200 ppm, soybean leaf disc preventative, compared to untreated control, read-out: control of Phakopsora pachyrhizi
[14] = system: Botryotinia fuckeliana (Botrytis cinerea); test: Botryotinia fuckeliana (Botrytis cinerea)/Liquid Culture (Gray Mould); format: cell-based; conditions: liquid culture, compared to untreated control
Protocol: Conidia of the fungus from cryogenic storage are directly mixed into nutrient broth (Vogels broth). After placing a (DMSO) solution of test compound into a microtiter plate (96-well format), the nutrient broth containing the fungal spores is added.

[15] = system: Thanatephorus cucumeris (Rhizoctonia solani); test: Thanatephorus cucumeris (Rhizoctonia solani)/Liquid Culture (Foot Rot, Damping-Off); format: cell-based; conditions: liquid culture, compared to untreated control
Protocol: Mycelia fragments of a newly grown liquid culture of the fungus are directly mixed into nutrient broth (PDB potato dextrose broth). After placing a (DMSO) solution of the test compounds into a microtiter plate (96-well format), the nutrient broth containing the fungal material is added.

[16] = Photostability assay (Atlas Suntest); format: physicochemical; conditions: Suntest 750 W/m^2, spotted on microscope slides
Protocol: The testing method to measure the photostability data of each compound in table is D1 is as specifically described below. The objective of the photostability assay was to determine the stability of the individual test compounds in a strictly controlled and reproducible environment allowing a comparison of their photostability.
Method: Compounds were dissolved in methanol (HPLC grade) to give 1 g/L stock solutions. Compound stock solution (2 μl) was spotted onto microscope slides in a 3D printed holder and put into the Atlas Suntest. The spectral output power of the Suntest was set to 750 W/m^2, which is considered typical of the daily maximum (noon) irradiance level on a very bright British Summer day. At specific time points slides were removed from the Suntest and placed in 4D vials. Wash solvent made up of 50:40:10 H2O:MeCN:THF (1 mL) is then added to the vials and whirlimixed. The resulting solution is then subsampled to an HPLC vial to be analysed. A Waters UPLC system with Photodiode Array was used with a Waters reverse phase column (BEH C18, 100×2.1 mm×1.7 μm) and acetonitrile (HPLC grade) acidified water (0.2% formic acid) mobile phase at a flow rate of 0.6 mL/min. Peak detection was at the optimum wavelength and peak areas were used for quantification
Initial and subsequent measurements of peak area attributable to the test compound were used to provide a % parent remaining at 3 hours.

[17] = system: Pyrenophora teres; test: Pyrenophora teres/Barley/Leaf Disc Preventative (Net Blotch); format: in vivo; conditions: foliar, 200 ppm, barley leaf disc preventative, compared to untreated control, read-out: control of Pyrenophora teres
In short: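 Formulated compound, diluted in water, sprayed onto barley cv. Hasso leaf segments on agar; spore suspension inoculation followed 2 days after application. Results expressed as percentage disease control.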

Row | Structure (SMILES) | pest or weed control at 200 ppm [1] | inhibition of growth at 20 ppm [2] | pest or weed control at 200 ppm [3] | pest or weed control at 200 ppm [4] | pest or weed control at 200 ppm [5] | inhibition of growth at 20 ppm [6] | pest or weed control at 200 ppm [7] | inhibition of growth at 20 ppm [8] | inhibition of growth at 20 ppm [9] | pest or weed control at 200 ppm [10] | inhibition of growth at 20 ppm [11] | melting point | pest or weed control at 200 ppm [12] | pest or weed control at 200 ppm [13] | inhibition of growth at 20 ppm [14] | inhibition of growth at 20 ppm [15] | % Parent Remaining @ 3 hrs [16] | pest or weed control at 200 ppm [17]
1 | CO/C=C(\Oc1cc(-n2ccc(C3CCC3)n2)c(F)cc1C)C(=O)OC [Compound E-18, methyl (Z)-2-[5-(3-cyclobutylpyrazol-1-yl)-4-fluoro-2-methyl-phenoxy]-3-methoxy-prop-2-enoate] | ≥ 80% | ≥ 80% | ≥ 80% | ≥ 80% | ≥ 80% | ≥ 80% | ≥ 80% | ≥ 80% | ≥ 80% | ≥ 80% | ≥ 80% |  |  |  |  |  |  | 
2 | CO/C=C(\Oc1cc(-n2ccc(C(F)(F)F)n2)cc(C)c1C)C(=O)OC [Compound E-19, methyl (Z)-2-[2,3-dimethyl-5-[3-(trifluoromethyl)pyrazol-1-yl]phenoxy]-3-methoxy-prop-2-enoate] | ≥ 80% | ≥ 80% | ≥ 80% | ≥ 80% |  | ≥ 80% | ≥ 80% | ≥ 80% | ≥ 80% | ≥ 80% | ≥ 80% | 144 to 146 °C | ≥ 80% |  |  |  |  | 
3 | CO/C=C(\Oc1cc(-n2ccc(C(C)C)n2)cc(C)c1C)C(=O)OC [Compound E-20, methyl (Z)-2-[5-(3-isopropylpyrazol-1-yl)-2,3-dimethyl-phenoxy]-3-methoxy-prop-2-enoate] | ≥ 80% | ≥ 80% | ≥ 80% | ≥ 80% | ≥ 80% | ≥ 80% | ≥ 80% | ≥ 80% | ≥ 80% |  | ≥ 80% | 103 to 105 °C | ≥ 80% | ≥ 50% |  |  |  | 
4 | C=C(c1ccn(-c2ccc(C)c(O/C(=C\OC)C(=O)OC)c2)n1)C(F)(F)F [Compound E-24, methyl (Z)-3-methoxy-2-[2-methyl-5-[3-[1-(trifluoromethyl)vinyl]pyrazol-1-yl]phenoxy]prop-2-enoate] | ≥ 80% | ≥ 80% | ≥ 80% | ≥ 80% | ≥ 80% | ≥ 80% | ≥ 80% | ≥ 80% | ≥ 80% | ≥ 80% | ≥ 80% |  | ≥ 80% |  | ≥ 80% | ≥ 80% |  | 
5 | CO/C=C(\Oc1cc(-n2ccc(C(F)(F)F)n2)c(F)cc1C)C(=O)OC [Compound E-42, methyl (Z)-2-[4-fluoro-2-methyl-5-[3-(trifluoromethyl)pyrazol-1-yl]phenoxy]-3-methoxy-prop-2-enoate] | ≥ 80% | ≥ 80% | ≥ 80% | ≥ 80% | ≥ 80% | ≥ 80% |  | ≥ 80% | ≥ 80% | ≥ 80% |  | 104 to 108 °C | ≥ 80% |  | ≥ 80% | ≥ 80% | 24% | ≥ 80%
6 | CO/C=C(\Oc1cc(-n2ccc(C(F)(F)C(F)(F)F)n2)ccc1C)C(=O)OC [Compound E-69, methyl (Z)-3-methoxy-2-[2-methyl-5-[3-(1,1,2,2,2-pentafluoroethyl)pyrazol-1-yl]phenoxy]prop-2-enoate] | ≥ 80% | ≥ 80% | ≥ 80% | ≥ 80% | ≥ 80% | ≥ 80% |  | ≥ 80% | ≥ 80% | ≥ 80% | ≥ 80% | 117 to 120 °C |  |  |  | ≥ 80% |  | 
7 | CO/C=C(\Oc1cc(-n2cc(Br)c(C)n2)ccc1C)C(=O)OC [Compound E-117, methyl (Z)-2-[5-(4-bromo-3-methyl-pyrazol-1-yl)-2-methyl-phenoxy]-3-methoxy-prop-2-enoate] | ≥ 80% | ≥ 80% |  | ≥ 80% | ≥ 80% | ≥ 80% |  | ≥ 80% | ≥ 80% | ≥ 80% | ≥ 80% | 120 to 122 °C |  |  |  |  |  | 
8 | CCCCc1cnn(-c2ccc(C)c(O/C(=C\OC)C(=O)OC)c2)n1 [Compound F-3, methyl (Z)-2-[5-(4-butyltriazol-2-yl)-2-methyl-phenoxy]-3-methoxy-prop-2-enoate] | ≥ 80% | ≥ 80% | ≥ 80% | ≥ 80% | ≥ 80% | ≥ 80% |  | ≥ 80% | ≥ 80% |  | ≥ 80% | 68 to 70 °C | ≥ 80% |  |  |  |  | 
9 | CO/C=C(\Oc1cc(-n2ncc(C3CCCCC3)n2)ccc1C)C(=O)OC [Compound F-7, methyl (Z)-2-[5-(4-cyclohexyltriazol-2-yl)-2-methyl-phenoxy]-3-methoxy-prop-2-enoate] | ≥ 80% | ≥ 80% | ≥ 80% | ≥ 80% | ≥ 80% | ≥ 80% |  | ≥ 80% | ≥ 80% | ≥ 80% | ≥ 80% | 120 to 122 °C | ≥ 80% |  |  |  |  | ≥ 80%
